Laboratory results as given in patent US12263172B2, “Toll-like receptor agonists for use in the treatment of hepatitis b” (priority 2019, dated 2025).

Experiments:
[1] = system: cytokines and ISGs (ISG15, MX1, OAS1); experiment: Phase 1 single oral dose pharmacodynamics (serum cytokines, whole blood ISGs) in healthy adults; format: in vivo, human
Protocol: IFN-α was assessed by an enzyme-linked immunosorbent assay; 13 other cytokines (granulocyte colony stimulating factor [GCSF], granulocyte macrophage colony stimulating factor [GMCSF], IFN-γ, IFN-γ-induced protein 10 [IP-10], interleukin [IL] 1β, IL-1 receptor antagonist [IL-1 RA], IL-10, IL-12 subunit P40, IL-6, IL-8, macrophage inflammatory protein 1β [MIP-1β], monocyte chemotactic protein 1 [MCP-1], and tumour necrosis factor [TNF]) were analysed by the appropriate Luminex assays. ISG expression analysis was conducted for three genes, ISG15, MX1 and OAS1 using quantitative polymerase chain reaction. Descriptive statistics were used to summarise PD parameters over time, and relative fold-changes from baseline values were calculated. Serum levels of IFN-α were measured by ELISA. Serum levels of IP-10, IFN-γ, TNF-α, IL-12 (subunit P40), IL-6, IL-1β, IL-1RA, IL-18, MCP-1, MIP-1β, G-CSF, GM-CSF, IL-10, IL-15 were measured by Luminex xMAP technology. The LLOQ for IFN-α was determined at 12.5 pg/mL and at 25 pg/mL for all other cytokines measured. Fold changes for each of the cytokines were calculated compared to predose values or LLOQ-1 values if predose values were below LLOQ. IFN-stimulated gene (ISG) expression analysis was conducted for 3 genes, ISG15, MX1, and OAS1, using quantitative polymerase chain reaction (qPCR) on collected whole blood samples. For the ISGs, relative fold changes from baseline were calculated according to the delta delta Cycle threshold (Ct) method (2^[Delta Delta Ct]). Assessments were done for Part 1 predose and postdose: 1.5 hours, 6 hours, 12 hours (Day 1), 24 hours (day 2), 48 hours (Day 3), 96 hours (Day 5), follow-up Week 2. For the Part 2, assessments were done predose and post the first and fourth dose: 2 hours, 4 hours, 12 hours, 24 hours, 48 hours, 96 hours and one week follow-up; and post the second and third doses: 12 hours and 48 hours.

HBV-infected PHHs = experiment: antiviral activity of compound-stimulated human whole blood and PBMC supernatant in HBV-infected PHHs; format: cell-based
[2] = pharmacokinetics and metabolism in animals; format: in vivo, rats and monkeys
Source text: Exposure increased more than dose-proportionally at low doses. Variability in exposure was high. • In vitro plasma protein binding was between 79.6% and 94.2% in animals and humans. Volume of distribution after intravenous dosing was high. […] Main metabolic pathways were oxygenation, hydrogenation, dehydrogenation, dealkylation, acetylation, glucuronidation, and/or glutathione conjugation. • In rats, >80% of drug-related material was found in feces, 11% to 20% in bile, and <4% in urine. […] There were no effects on embryofetal development up to 1 mg/kg/dose in rats and 30 mg/kg/dose in rabbits.

[3] = single dose 0.6 mg, 12 hours post dosing

## CCCCOc1nc(N)c2[nH]cc(Cc3ccc(CN4CCCC4)cc3)c2n1 [Compound 4]
[1]; single dose
  number of the 14 cytokines evaluated that increased ≥2-fold versus baseline (IFN-α, IP-10, IL-1 RA, MCP-1, IL-6): 5
  time within which cytokine levels and ISG expression peaked: 12 to 24 h
[1]; single dose 0.2 mg
  induction of ISGs or cytokines: No relevant induction of ISGs or cytokines
[1]; single dose 0.2 mg fasted
  participants with ≥2 relative fold increase in ISG15 expression from baseline in the first 96 hours: 0 n (%)
  participants with ≥2 relative fold increase in MX1 expression from baseline in the first 96 hours: 1 (20.0%) n (%)
  participants with ≥2 relative fold increase in OAS1 expression from baseline in the first 96 hours: 0 n (%)
  subjects with ≥2-fold change from baseline in GCSF within 96 hours: 0 n (%)
  subjects with ≥2-fold change from baseline in GMCSF within 96 hours: 0 n (%)
  subjects with ≥2-fold change from baseline in IFN-α within 96 hours: 0 n (%)
  subjects with ≥2-fold change from baseline in IFN-γ within 96 hours: 0 n (%)
  subjects with ≥2-fold change from baseline in IL-1RA within 96 hours: 0 n (%)
  subjects with ≥2-fold change from baseline in IL-1β within 96 hours: 0 n (%)
  subjects with ≥2-fold change from baseline in IL-6 within 96 hours: 1 (20.0%) n (%)
  subjects with ≥2-fold change from baseline in IL-8 within 96 hours: 0 n (%)
  subjects with ≥2-fold change from baseline in IL-10 within 96 hours: 0 n (%)
  subjects with ≥2-fold change from baseline in IL-12 subunit P40 within 96 hours: 0 n (%)
  subjects with ≥2-fold change from baseline in IP-10 within 96 hours: 0 n (%)
  subjects with ≥2-fold change from baseline in MCP-1 within 96 hours: 0 n (%)
  subjects with ≥2-fold change from baseline in MIP-1β within 96 hours: 0 n (%)
  subjects with ≥2-fold change from baseline in TNF-α within 96 hours: 0 n (%)
[1]; single dose 0.6 mg
  treated subjects with ≥2-fold increase from baseline for all 3 ISGs within the first 96 hours: Five of 6
[1]; single dose 0.6 mg fasted
  participants with ≥2 relative fold increase in ISG15 expression from baseline in the first 96 hours: 5 (83.3%) n (%)
  participants with ≥2 relative fold increase in MX1 expression from baseline in the first 96 hours: 5 (83.3%) n (%)
  participants with ≥2 relative fold increase in OAS1 expression from baseline in the first 96 hours: 5 (83.3%) n (%)
  subjects with ≥2-fold change from baseline in GCSF within 96 hours: 1 (16.7%) n (%)
  subjects with ≥2-fold change from baseline in GMCSF within 96 hours: 0 n (%)
  subjects with ≥2-fold change from baseline in IFN-α within 96 hours: 0 n (%)
  subjects with ≥2-fold change from baseline in IFN-γ within 96 hours: 0 n (%)
  subjects with ≥2-fold change from baseline in IL-1RA within 96 hours: 0 n (%)
  subjects with ≥2-fold change from baseline in IL-1β within 96 hours: 0 n (%)
  subjects with ≥2-fold change from baseline in IL-6 within 96 hours: 0 n (%)
  subjects with ≥2-fold change from baseline in IL-8 within 96 hours: 0 n (%)
  subjects with ≥2-fold change from baseline in IL-10 within 96 hours: 0 n (%)
  subjects with ≥2-fold change from baseline in IL-12 subunit P40 within 96 hours: 0 n (%)
  subjects with ≥2-fold change from baseline in MIP-1β within 96 hours: 0 n (%)
  subjects with ≥2-fold change from baseline in TNF-α within 96 hours: 0 n (%)
[1]; [3]
  maximum concentration of IP-10: 1,322.0 pg/mL
  maximum concentration of MCP-1: 878.2 pg/mL
[1]; single dose 1.25 mg
  increased expression of cytokines and ISGs, fed versus fasted state: less frequently observed in the 1.25 mg fed state than in the fasted state
  treated subjects with ≥2-fold increase from baseline for all 3 ISGs within the first 96 hours: all treated subjects
[1]; single dose 1.25 mg fasted
  participants with ≥2 relative fold increase in ISG15 expression from baseline in the first 96 hours: 8 (100%) n (%)
  participants with ≥2 relative fold increase in MX1 expression from baseline in the first 96 hours: 8 (100%) n (%)
  participants with ≥2 relative fold increase in OAS1 expression from baseline in the first 96 hours: 8 (100%) n (%)
  subjects with IFN-α levels 100 pg/mL coinciding with flu-like AEs and low lymphocytes: 3 of 8
  subjects with ≥2-fold change from baseline in GCSF within 96 hours: 1 (12.5%) n (%)
  subjects with ≥2-fold change from baseline in GMCSF within 96 hours: 0 n (%)
  subjects with ≥2-fold change from baseline in IFN-γ within 96 hours: 2 (25.0%) n (%)
  subjects with ≥2-fold change from baseline in IL-1β within 96 hours: 0 n (%)
  subjects with ≥2-fold change from baseline in IL-6 within 96 hours: 1 (12.5%) n (%)
  subjects with ≥2-fold change from baseline in IL-8 within 96 hours: 0 n (%)
  subjects with ≥2-fold change from baseline in IL-10 within 96 hours: 0 n (%)
  subjects with ≥2-fold change from baseline in IL-12 subunit P40 within 96 hours: 0 n (%)
  subjects with ≥2-fold change from baseline in MIP-1β within 96 hours: 0 n (%)
  subjects with ≥2-fold change from baseline in TNF-α within 96 hours: 0 n (%)
  treated females with 2-fold increase in IFN-α: 2 of the 3
  treated male subjects with 2-fold increase in IFN-α: 2 out of 5
[1]; single dose 1.25 mg fasted, 4/8 subjects
  IFNα levels in subjects with increase, range: 63 to 533 pg/mL
[1]; single dose 1.25 mg fed
  increase in IFN-α in the fed state among the 3 subjects with increase in the fasted state: none showed an increase in IFN-α in the fed state
[1]; single dose 1.8 mg
  treated male subjects with ≥2-fold increase in IFN-α: 1 of the 5
  treated subjects with ≥2-fold increase from baseline for all 3 ISGs within the first 96 hours: all treated subjects
[1]; single dose 1.8 mg fasted
  participants with ≥2 relative fold increase in ISG15 expression from baseline in the first 96 hours: 6 (100%) n (%)
  participants with ≥2 relative fold increase in MX1 expression from baseline in the first 96 hours: 6 (100%) n (%)
  participants with ≥2 relative fold increase in OAS1 expression from baseline in the first 96 hours: 6 (100%) n (%)
  subjects with IFN-α levels 100 pg/mL coinciding with flu-like AEs and low lymphocytes: 2 of 6
  subjects with ≥2-fold change from baseline in GCSF within 96 hours: 0 n (%)
  subjects with ≥2-fold change from baseline in GMCSF within 96 hours: 0 n (%)
  subjects with ≥2-fold change from baseline in IFN-γ within 96 hours: 2 (33.3%) n (%)
  subjects with ≥2-fold change from baseline in IL-1β within 96 hours: 0 n (%)
  subjects with ≥2-fold change from baseline in IL-6 within 96 hours: 1 (16.7%) n (%)
  subjects with ≥2-fold change from baseline in IL-8 within 96 hours: 0 n (%)
  subjects with ≥2-fold change from baseline in IL-10 within 96 hours: 0 n (%)
  subjects with ≥2-fold change from baseline in IL-12 subunit P40 within 96 hours: 0 n (%)
  subjects with ≥2-fold change from baseline in MIP-1β within 96 hours: 0 n (%)
  subjects with ≥2-fold change from baseline in TNF-α within 96 hours: 0 n (%)
[1]; single dose, post-administration
  time within which cytokine levels and ISG expression returned to baseline: 48 to 96 h
[1]; two highest fasted dose groups
  time of return to baseline after dosing: approximately 96 hours
HBV-infected PHHs
  anti-HBV activity target concentration in vitro: 3.3 nM
HBV-infected PHHs; 3.3 nM
  maximum decline of HBV DNA compared to DMSO controls: 1.5 log 10
  maximum decline of HBV RNA compared to DMSO controls: 1.1 log 10
  maximum decline of HBeAg compared to DMSO controls: 1.3 log 10
  maximum decline of HBsAg compared to DMSO controls: 0.4 log 10
[2]; in vivo
  blood clearance: moderate
[2]; intravenous dosing
  volume of distribution: high
[2]; oral dosing in rats and monkeys
  tissue distribution: highest levels in liver, small intestines and brain
[2]; rat, monkey, in vivo
  half-life: 5 to 14 h
[2]; rat, monkey, in vivo, oral dosing
  Tmax: 0.8 to 2 h
